Assay results: patent US11078202B2, “β-lactamase inhibitor and use thereof” (priority 2018, dated 2021)
Structures can show the parent of a compound that is named as a salt.

How the values were obtained:
Format in all cases: cell-based
[1] = test system: Acinetobacter baumannii XNWB 0007; test: MIC assay of test compounds combined with ceftazidime (8 μg/mL); details: ceftazidime 8 μg/mL fixed
Procedure, shortened: (§1)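 Frozen strains, thawed and passaged twice on TSA (35±2 °C, 20-24 h), supplied colonies standardised in saline to OD600 0.1-0.15. These suspensions, diluted 300× in 1.1×CAMHB, were exposed to graded compound with constant partner antibiotic; MICs were read after 16-20 h at 35±2 °C.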

[2] = test system: Klebsiella pneumoniae XNWB 0001; test: as above; details: ceftazidime 8 μg/mL fixed
Procedure, shortened: as §1

[3] = test system: Klebsiella pneumoniae XNWB 0002; test: as above; details: ceftazidime 8 μg/mL fixed
Procedure, shortened: as §1

[4] = test system: Klebsiella pneumoniae XNWB 0003; test: as above; details: ceftazidime 8 μg/mL fixed
Procedure, shortened: as §1

[5] = test system: Klebsiella pneumoniae XNWB 0004; test: as above; details: ceftazidime 8 μg/mL fixed
Procedure, shortened: as §1

[6] = test system: Klebsiella pneumoniae XNWB 0005; test: as above; details: ceftazidime 8 μg/mL fixed
Procedure, shortened: as §1

[7] = test system: Klebsiella pneumoniae XNWB 0006; test: as above; details: ceftazidime 8 μg/mL fixed
Procedure, shortened: as §1

[8] = test system: Pseudomonas aeruginosa XNWB 0008; test: as above; details: ceftazidime 8 μg/mL fixed
Procedure, shortened: as §1

[9] = test system: Acinetobacter baumannii XNWB 0007; test: MIC assay of test compounds combined with imipenem (4 μg/mL); details: imipenem 4 μg/mL fixed
Procedure, shortened: as §1

[10] = test system: Klebsiella pneumoniae XNWB 0001; test: as above; details: imipenem 4 μg/mL fixed
Procedure, shortened: as §1

[11] = test system: Klebsiella pneumoniae XNWB 0002; test: as above; details: imipenem 4 μg/mL fixed
Procedure, shortened: as §1

[12] = test system: Klebsiella pneumoniae XNWB 0003; test: as above; details: imipenem 4 μg/mL fixed
Procedure, shortened: as §1

[13] = test system: Klebsiella pneumoniae XNWB 0004; test: as above; details: imipenem 4 μg/mL fixed
Procedure, shortened: as §1

[14] = test system: Klebsiella pneumoniae XNWB 0005; test: as above; details: imipenem 4 μg/mL fixed
Procedure, shortened: as §1

[15] = test system: Klebsiella pneumoniae XNWB 0006; test: as above; details: imipenem 4 μg/mL fixed
Procedure, shortened: as §1

[16] = test system: Pseudomonas aeruginosa XNWB 0008; test: as above; details: imipenem 4 μg/mL fixed
Procedure, shortened: as §1

Row | SMILES | The minimum concentration of test compounds combined with ceftazidime (8 μg/mL) for bacteriostasis [1] | The minimum concentration of test compounds combined with ceftazidime (8 μg/mL) for bacteriostasis [2] | The minimum concentration of test compounds combined with ceftazidime (8 μg/mL) for bacteriostasis [3] | The minimum concentration of test compounds combined with ceftazidime (8 μg/mL) for bacteriostasis [4] | The minimum concentration of test compounds combined with ceftazidime (8 μg/mL) for bacteriostasis [5] | The minimum concentration of test compounds combined with ceftazidime (8 μg/mL) for bacteriostasis [6] | The minimum concentration of test compounds combined with ceftazidime (8 μg/mL) for bacteriostasis [7] | The minimum concentration of test compounds combined with ceftazidime (8 μg/mL) for bacteriostasis [8] | The minimum concentration of test compounds combined with imipenem (4 μg/mL) for bacteriostasis [9] | The minimum concentration of test compounds combined with imipenem (4 μg/mL) for bacteriostasis [10] | The minimum concentration of test compounds combined with imipenem (4 μg/mL) for bacteriostasis [11] | The minimum concentration of test compounds combined with imipenem (4 μg/mL) for bacteriostasis [12] | The minimum concentration of test compounds combined with imipenem (4 μg/mL) for bacteriostasis [13] | The minimum concentration of test compounds combined with imipenem (4 μg/mL) for bacteriostasis [14] | The minimum concentration of test compounds combined with imipenem (4 μg/mL) for bacteriostasis [15] | The minimum concentration of test compounds combined with imipenem (4 μg/mL) for bacteriostasis [16]
1 | NC1(Cc2nnc([C@@H]3CC4(CC4)[C@@H]4CN3C(=O)N4OS(=O)(=O)O)o2)CC1 [Example 21, (1R,4S)-4-(5-((1-aminocyclopropyl)methyl)-1,3,4-oxadiazol-2-yl)-6-oxo-5,7-diazaspiro [bicyclo[3.2.1]octane-2,1′-cyclopropan]-7-yl sulfate] | C (C: 16-128 μg/mL) | A (A: <8 μg/mL) | A (A: <8 μg/mL) | A (A: <8 μg/mL) | B (B: 8-16 μg/mL) | B (B: 8-16 μg/mL) | A (A: <8 μg/mL) | C (C: 16-128 μg/mL) | C (C: 16-128 μg/mL) | A (A: <8 μg/mL) | A (A: <8 μg/mL) | A (A: <8 μg/mL) | A (A: <8 μg/mL) | A (A: <8 μg/mL) | A (A: <8 μg/mL) | C (C: 16-128 μg/mL)
2 | O=C1N2C[C@H](N1OS(=O)(=O)O)C1(CC1)C[C@H]2c1ccon1 [Example 54, (1R,4S)-4-(isoxazol-3-yl)-6-oxo-5,7-diazaspiro[bicyclo[3.2.1]octane-2,1′-cyclopropan]-7-yl sulfate] | C (C: 16-128 μg/mL) | B (B: 8-16 μg/mL) | A (A: <8 μg/mL) | B (B: 8-16 μg/mL) | C (C: 16-128 μg/mL) | C (C: 16-128 μg/mL) | A (A: <8 μg/mL) | C (C: 16-128 μg/mL) | C (C: 16-128 μg/mL) | A (A: <8 μg/mL) | A (A: <8 μg/mL) | A (A: <8 μg/mL) | A (A: <8 μg/mL) | A (A: <8 μg/mL) | A (A: <8 μg/mL) | C (C: 16-128 μg/mL)
3 | N[C@H]1CC[C@@H](c2nnc([C@@H]3CC4(CC4)[C@@H]4CN3C(=O)N4OS(=O)(=O)O)o2)C1 [Example 17, (1R,4S)-4-(5-((1R,3S)-3-aminocyclopentyl)-1,3,4-oxadiazol-2-yl)-6-oxo-5,7-diazaspiro [bicyclo[3.2.1]octane-2,1′-cyclopropan]-7-yl sulfate] | C (C: 16-128 μg/mL) | A (A: <8 μg/mL) | A (A: <8 μg/mL) | A (A: <8 μg/mL) | A (A: <8 μg/mL) | A (A: <8 μg/mL) | A (A: <8 μg/mL) | B (B: 8-16 μg/mL) | B (B: 8-16 μg/mL) | A (A: <8 μg/mL) | A (A: <8 μg/mL) | A (A: <8 μg/mL) | A (A: <8 μg/mL) | A (A: <8 μg/mL) | A (A: <8 μg/mL) | A (A: <8 μg/mL)
4 | CN(Cc1cc([C@@H]2CC3(CC3)[C@@H]3CN2C(=O)N3OS(=O)(=O)O)no1)C(=N)N [Example 33, (1R,4S)-4-(5-((1-methylguanidino)methyl)isoxazol-3-yl)-6-oxo-5,7-diazaspiro[bicycle [3.2.1]octane-2,1′-cyclopropan]-7-yl sulfate] | C (C: 16-128 μg/mL) | B (B: 8-16 μg/mL) | A (A: <8 μg/mL) | C (C: 16-128 μg/mL) | C (C: 16-128 μg/mL) | B (B: 8-16 μg/mL) | A (A: <8 μg/mL) | C (C: 16-128 μg/mL) | C (C: 16-128 μg/mL) | A (A: <8 μg/mL) | A (A: <8 μg/mL) | A (A: <8 μg/mL) | A (A: <8 μg/mL) | A (A: <8 μg/mL) | A (A: <8 μg/mL) | B (B: 8-16 μg/mL)
